A value given as a limit tells only on which side of the number the result lay.

A2A adenosine receptors, sequence (P29274 whole entry): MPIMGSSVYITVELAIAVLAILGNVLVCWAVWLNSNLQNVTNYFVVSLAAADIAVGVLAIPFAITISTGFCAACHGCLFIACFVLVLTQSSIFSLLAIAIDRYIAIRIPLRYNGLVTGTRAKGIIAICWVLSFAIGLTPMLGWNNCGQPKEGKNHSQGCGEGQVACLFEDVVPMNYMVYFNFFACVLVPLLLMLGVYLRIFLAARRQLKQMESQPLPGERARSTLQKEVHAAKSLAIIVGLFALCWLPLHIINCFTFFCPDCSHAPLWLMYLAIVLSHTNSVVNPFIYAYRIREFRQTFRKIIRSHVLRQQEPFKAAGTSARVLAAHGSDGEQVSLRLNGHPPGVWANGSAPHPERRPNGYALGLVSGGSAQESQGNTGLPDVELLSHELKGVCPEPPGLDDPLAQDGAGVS

For the assay, the target named is A2A adenosine receptors (Homo sapiens, UniProt P29274). The experiment in a line: A2A Ki binding (methodology of Murphree et al., Mol Pharmacol 2002, 61, 455-62). The text has this:
The Ki values were obtained using the methodology described by Murphree et al. in Mol Pharmacol 2002, 61, 455-62.
Regarding `CNC(=O)[C@H]1O[C@@H](n2cnc3c(N)nc(C#CCN(C)C(=O)c4ccc(C(F)(F)F)nc4)nc32)C(O)[C@@H]1O` (stereo partly drawn) [Example 1, N-Methyl 2-(3-{N-methyl-1-[6-(trifluoromethyl)pyridin-3-yl]formamido}prop-1-yn-1-yl)adenosine-5′-uronamide], the Ki (as a rule, the equilibrium dissociation constant of an inhibitor or competing ligand from its target) is < 1 nM.
The same measure for `CN(CC#Cc1nc(N)c2ncn([C@@H]3O[C@H](C(=O)NC4CC4)[C@@H](O)C3O)c2n1)C(=O)c1ccc(C(F)(F)F)nc1` (stereo partly drawn) [Example 2, N-Cyclopropyl 2-(3-{N-methyl-1-[6-(trifluoromethyl)pyridin-3-yl]formamido}prop-1-yn-1-yl)adenosine-5′-uronamide]: < 1 nM; for `Nc1nc(C#CCN(CC2CC2)C(=O)c2ccccc2)nc2c1ncn2[C@@H]1O[C@H](C(=O)NC2CC2)[C@@H](O)C1O` (stereo partly drawn) [Example 3, N-Cyclopropyl 2-{3-[N-(cyclopropylmethyl)benzamido]propyn-1-yl}adenosine-5′-uronamide]: < 1 nM.
Then `Nc1nc(C#CCN(C(=O)c2ccccc2)C2CCC2)nc2c1ncn2[C@@H]1O[C@H](C(=O)NC2CC2)[C@@H](O)C1O` (stereo partly drawn) [Example 4, N-Cyclopropyl 2-{3-[N-(cyclobutyl)benzamido]propyn-1-yl}adenosine-5′-uronamide], with < 1 nM; and `Nc1nc(C#CCNC(=O)c2ccccc2)nc2c1ncn2[C@@H]1O[C@H](C(=O)NC2CC2)[C@@H](O)C1O` (stereo partly drawn) [Example 5, N-Cyclopropyl 2-{3-[benzamido]propyn-1-yl}adenosine-5′-uronamide], with 1 to 50 nM.
On to `CNC(=O)[C@H]1O[C@@H](n2cnc3c(N)nc(C#CCN(C)C(=O)c4ccc(F)nc4)nc32)C(O)[C@@H]1O` (stereo partly drawn) [Example 6, N-Methyl 2-{3-[N-methyl-1-(6-fluoropyridin-3-yl)formamido]prop-1-yn-1-yl}adenosine-5′-uronamide], for which the Ki is < 1 nM.
The same measure for `CN(CC#Cc1nc(N)c2ncn([C@@H]3O[C@H](C(=O)NC4CC4)[C@@H](O)C3O)c2n1)C(=O)c1ccc(F)nc1` (stereo partly drawn) [Example 7, N-Cyclopropyl 2-{3-[N-methyl-1-(6-fluoropyridin-3-yl)formamido]prop-1-yn-1-yl}adenosine-5′-uronamide]: 1 to 50 nM; for `CNC(=O)[C@H]1O[C@@H](n2cnc3c(N)nc(C#CCN(C(=O)c4ccccc4)C4CCC4)nc32)C(O)[C@@H]1O` (stereo partly drawn) [Example 8, N-Methyl 2-{3-[N-(cyclobutyl)benzamido]propyn-1-yl}adenosine-5′-uronamide]: < 1 nM.
Then `CNC(=O)[C@H]1O[C@@H](n2cnc3c(N)nc(C#CCN(C)C(=O)c4cccnc4)nc32)C(O)[C@@H]1O` (stereo partly drawn) [Example 9, N-Methyl 2-{3-[N-methylnicotinamido]propyn-1-yl}adenosine-5′-uronamide], with 1 to 50 nM; and `CNC(=O)[C@H]1O[C@@H](n2cnc3c(N)nc(C#CCN(C)C(=O)c4ccncc4)nc32)C(O)[C@@H]1O` (stereo partly drawn) [Example 10, N-Methyl 2-{3-[N-methylisonicotinamido]propyn-1-yl}adenosine-5′-uronamide], with 1 to 50 nM; and `CNC(=O)[C@H]1O[C@@H](n2cnc3c(N)nc(C#CCN(CCOC)C(=O)c4ccc(F)nc4)nc32)C(O)[C@@H]1O` (stereo partly drawn) [Example 11, N-Methyl 2-{3-[6-fluoro-N-(2-methoxyethyl)nicotinamido]propyn-1-yl}adenosine-5′-uronamide], with < 1 nM.
The same measure for `CNC(=O)[C@H]1O[C@@H](n2cnc3c(N)nc(C#CCN(CCOC)C(=O)c4cccs4)nc32)C(O)[C@@H]1O` (stereo partly drawn) [Example 12, N-Methyl 2-{3-[N-(2-methoxyethyl)thiophene-2-carboxamido]propyn-1-yl}adenosine-5′-uronamide]: < 1 nM.
On to `CNC(=O)[C@H]1O[C@@H](n2cnc3c(N)nc(C#CCN(C)C(=O)c4ccccc4)nc32)C(O)[C@@H]1O` (stereo partly drawn) [Example 13, N-Methyl 2-{3-[N-methylbenzamido]propyn-1-yl}adenosine-5′-uronamide], for which the Ki is < 1 nM.
Then `CNC(=O)[C@H]1O[C@@H](n2cnc3c(N)nc(C#CCN(CCOC)C(=O)c4ccccc4)nc32)C(O)[C@@H]1O` (stereo partly drawn) [Example 14, N-Methyl 2-{3-[N-(2-methoxyethyl)benzamido]propyn-1-yl}adenosine-5′-uronamide], with < 1 nM.
On to `CNC(=O)[C@H]1O[C@@H](n2cnc3c(N)nc(C#CCN(C)C(=O)c4ccc(F)cc4)nc32)C(O)[C@@H]1O` (stereo partly drawn) [Example 15, N-Methyl 2-{3-[4-fluoro-N-methylbenzamido]propyn-1-yl}adenosine-5′-uronamide], for which the Ki is < 1 nM.
The compound `Nc1nc(C#CCN(C(=O)Cc2ccccc2)C2CC2)nc2c1ncn2[C@@H]1O[C@H](C(=O)NC2CC2)[C@@H](O)C1O` (stereo partly drawn) [Example 16] had a Ki of 1 to 50 nM.
Then `CNC(=O)[C@H]1O[C@@H](n2cnc3c(N)nc(C#CCN(Cc4ccc(OC)cc4)C(=O)C4CC4)nc32)C(O)[C@@H]1O` (stereo partly drawn) [Example 17], with 1 to 50 nM; and `COc1ccc(CN(CC#Cc2nc(N)c3ncn([C@@H]4O[C@H](C(=O)NC5CC5)[C@@H](O)C4O)c3n2)C(=O)C2CC2)cc1` (stereo partly drawn) [Example 18], with < 1 nM.
The same measure for `CNC(=O)[C@H]1O[C@@H](n2cnc3c(N)nc(C#CCN(C(=O)c4ccc(F)cc4)C4CCC4)nc32)C(O)[C@@H]1O` (stereo partly drawn) [Example 19]: < 1 nM; for `CNC(=O)[C@H]1O[C@@H](n2cnc3c(N)nc(C#CCN(C(=O)c4cccc(F)c4)C4CCC4)nc32)C(O)[C@@H]1O` (stereo partly drawn) [Example 20]: < 1 nM.
Regarding `CNC(=O)[C@H]1O[C@@H](n2cnc3c(N)nc(C#CCN(C(=O)c4ccc(OC)c(F)c4)C4CCC4)nc32)C(O)[C@@H]1O` (stereo partly drawn) [Example 21], the Ki was < 1 nM.
Then `CNC(=O)[C@H]1O[C@@H](n2cnc3c(N)nc(C#CCN(C(=O)c4ccc(Cl)nc4)C4CC4)nc32)C(O)[C@@H]1O` (stereo partly drawn) [Example 22], with < 1 nM; and `CNC(=O)[C@H]1O[C@@H](n2cnc3c(N)nc(C#CCN(C(=O)c4ccccc4)C4CC4)nc32)C(O)[C@@H]1O` (stereo partly drawn) [Example 23], with > 50 nM; and `Nc1nc(C#CCN(C(=O)c2ccc(Cl)nc2)C2CC2)nc2c1ncn2[C@@H]1O[C@H](C(=O)NC2CC2)[C@@H](O)C1O` (stereo partly drawn) [Example 24], with < 1 nM.
With `Nc1nc(C#CCN(C(=O)c2ccccc2)C2CC2)nc2c1ncn2[C@@H]1O[C@H](C(=O)NC2CC2)[C@@H](O)C1O` (stereo partly drawn) [Example 25], the Ki is < 1 nM.
Then `CCNC(=O)[C@H]1O[C@@H](n2cnc3c(N)nc(C#CCN(C(=O)c4ccc(Cl)nc4)C4CC4)nc32)C(O)[C@@H]1O` (stereo partly drawn) [Example 26], with < 1 nM; and `CCNC(=O)[C@H]1O[C@@H](n2cnc3c(N)nc(C#CCN(C(=O)Cc4ccccc4)C4CC4)nc32)C(O)[C@@H]1O` (stereo partly drawn) [Example 27], with 1 to 50 nM; and `CCNC(=O)[C@H]1O[C@@H](n2cnc3c(N)nc(C#CCN(C)C(=O)c4ccc(C(F)(F)F)nc4)nc32)C(O)[C@@H]1O` (stereo partly drawn) [Example 28], with < 1 nM.
On to `CNC(=O)[C@H]1O[C@@H](n2cnc3c(N)nc(C#CCN(C)C(=O)c4ccc(OC)c(F)c4)nc32)C(O)[C@@H]1O` (stereo partly drawn) [Example 29], for which the Ki is < 1 nM.
In the case of `CNC(=O)[C@H]1O[C@@H](n2cnc3c(N)nc(C#CCN(C(=O)c4ccc(Cl)cc4)C4CCC4)nc32)C(O)[C@@H]1O` (stereo partly drawn) [Example 30], the inhibition constant Ki is < 1 nM.
Then `CNC(=O)[C@H]1O[C@@H](n2cnc3c(N)nc(C#CCN(C(=O)c4ccccc4)C4CCCC4)nc32)C(O)[C@@H]1O` (stereo partly drawn) [Example 31], with < 1 nM.
The same measure for `CNC(=O)[C@H]1O[C@@H](n2cnc3c(N)nc(C#CCN(CC(C)C)C(=O)c4ccccc4)nc32)C(O)[C@@H]1O` (stereo partly drawn) [Example 32]: < 1 nM; for `CNC(=O)[C@H]1O[C@@H](n2cnc3c(N)nc(C#CCN(C)C(=O)c4ccc(C#N)cc4)nc32)C(O)[C@@H]1O` (stereo partly drawn) [Example 33]: < 1 nM.
Then `CNC(=O)[C@H]1O[C@@H](n2cnc3c(N)nc(C#CCN(Cc4cccs4)C(=O)c4ccccc4)nc32)C(O)[C@@H]1O` (stereo partly drawn) [Example 34], with 1 to 50 nM.
Take `CCNC(=O)[C@H]1O[C@@H](n2cnc3c(N)nc(C#CCN(C)C(=O)c4ccc(F)nc4)nc32)C(O)[C@@H]1O` (stereo partly drawn) [Example 35]: the Ki was < 1 nM.
The same measure for `CCNC(=O)[C@H]1O[C@@H](n2cnc3c(N)nc(C#CCN(Cc4ccc(OC)cc4)C(=O)C4CC4)nc32)C(O)[C@@H]1O` (stereo partly drawn) [Example 36]: 1 to 50 nM.
